Measurements reported in patent US10806794B2, “Protease inhibitors having enhanced features” (priority 2008, dated 2020).
Values joined by “and” are separate entries in the source; they are usually repeats but may differ in a detail not shown here. Equal entries are not always repeated. Where two headings read alike, the source gives them in different places.

Tests used:
PBMCs [1] = test: PBMC macromolecule synthesis (tritiated precursor incorporation); format: cell-based, human; conditions: for Thymidine Incorporation (PBMC) TC50: DNA synthesis; for Uridine Incorporation (PBMC) TC50: RNA synthesis; for Leucine Incorporation (PBMC) TC50: protein synthesis
Description: Cellular macromolecule synthesis was evaluated using tritiated precursor incorporation assays. PBMCs (5×10^4 cells/well) were cultured in the presence or absence of test compound for 7 days at 37 C, 5% CO2 in a 96-well microtiter plate. On day 6 of the incubation, 1 uCi of [methyl-3H]-thymidine for DNA synthesis, [5-3H]-uridine for RNA synthesis, or [3,4,5-3H]-leucine for protein synthesis was added to compound-treated cells, and the plate was further incubated for 16 hours. The cells were transferred to a glass fiber filtermat using an Inotech cell harvester. The filtermats were washed with distilled water then sealed in a bag with scintillation fluid. Incorporated radioactivity was measured using a Wallac scintillation counter.

PBMCs [2] = test: PBMC cytotoxicity (XTT); format: cell-based, human; conditions: 7 days
Description: Mononuclear cells were isolated from fresh human peripheral blood cells by Ficoll-Hypaque density gradient by centrifugation at 600 g for 30 minutes. Banded peripheral blood mononuclear cells (PBMCs) were aspirated from the resulting interface and washed with phosphate buffered saline by low speed centrifugation. Cell viability was evaluated by Trypan Blue dye exclusion. […] Plates were incubated at 37° C., 5% CO2 for 7 days prior to cytotoxicity evaluation. XTT measurement for cytotoxicity.

HIV-1 HT/92/599 = test: HIV-1 reverse transcriptase activity after infection of fresh human PBMCs; format: cell-based; conditions: read-out: PBMC/HIV-1HT/92/599 EC50 ± SD; seven days, reverse transcriptase activity
Description: (§1) Fresh human peripheral blood mononuclear cells (PBMCs) obtained from a commercial source were purified following centrifugation using a Ficoll-Hypaque density gradient. Viable cells were induced to proliferate in the presence of PHA-P and recombinant human IL-2 for 72 hours. […] Cell supernatant containing HIV-1 viral was incubated for 90 minutes at 37° C. with a reaction mixture containing EGTA, Triton X-100, Tris (pH 7.4), DTT, MgCl2, poly rA, oligo dT, and tritiated thymidine triphosphate (TTP). Incorporation of TTP into DNA was monitored by spotting the reaction mixture onto a DEAE filter mat, followed by washes with 5% phosphate buffer, distilled water, and 70% ethanol, and subsequent drying of the mat. Radioactivity was measured using a Wallac 1450 Microbeta Trilux liquid scintillation counter using Opti-Fluor O. Test compound-associated toxicity was measured in PBMCs cultured for seven days in the absence of virus using XTT reagent. […] TI was calculated as TC50/EC50.

[3] = system: human liver microsomal proteins; test: Microsomal protein binding by equilibrium dialysis; format: in vitro ADME; conditions: human liver microsomes, 3 μM, fraction unbound
Description: PEGylated protease inhibitors were evaluated for their propensity to be bound by proteins in normal human plasma or in human liver microsome preparations using equilibrium dialysis analysis. For microsomal protein binding, test compound (final concentration=3 μM) was diluted into either buffer alone or buffer containing human liver microsomes. The protein-free and microsome-containing solutions were then added to either side of an equilibrium dialysis system and allowed to reach equilibrium at 37° C. The concentration of compound on both sides of the membrane at equilibrium was quantified by LC-MS/MS, and the fraction of compound that remains unbound (Fu) is calculated.

PBMCs [4] = test: Toxicity in PBMCs cultured without virus (XTT); conditions: seven days, absence of virus, XTT
Description: as §1, with “mat.” for “mat. Radioactivity was measured using a Wallac 1450 Microbeta Trilux liquid scintillation counter using Opti-Fluor O. Test compound-associated toxicity was measured in PBMCs cultured for seven days in the absence of virus using XTT reagent.”

Caco-2 cells = test: Bi-directional permeability in Caco-2 monolayers
Description: Absorption properties of various compounds were measured using bi-directional permeability assays in Caco-2 cells. […] The efflux ratio is calculated as the ratio of the Papp(B→A)/Papp(A→B).

HIV-1RF [5] = test: Anti-HIV cytoprotection in CEM-SS cells infected with HIV-1RF (XTT); format: cell-based; conditions: six days, XTT; read-out: CEM-SS/HIV-1RF EC50 ± SD
Description: (§2) To evaluate whether conjugated protease inhibitors retain the ability to protect against HIV-1 infection, CEM-SS cells infected with the RF strain of HIV-1 were treated with test compounds for six days, and then cell viability was monitored using the tetrazolium dye XTT. […] A value for Therapeutic Index (TI) was calculated as TC50/EC50.

[6] = Metabolic stability in human liver microsomes; conditions: human liver microsomes, 3 μM
Description: The human liver microsome-mediated biotransformation of PEG-PI compounds was determined by monitoring the loss of the substrate as a function of time. […] Test compounds (3 μM final concentration) were preincubated with pooled (male and female) human liver microsomes (0.5 mg/mL final protein concentration) in buffer (0.1M phosphate buffer, pH 7.4) at 37° C. Reactions were initiated by the addition of NADPH (1 mM final concentration), and allowed to continue for 0, 5, 15, 30, and 45 minutes. […] Sample supernatants are analyzed by liquid chromatography-tandem mass spectrometry.

human plasma proteins = test: Plasma protein binding by equilibrium dialysis, human plasma; format: in vitro ADME; conditions: human plasma, 5 μM, fraction unbound
Description: In assays to estimate binding of test compounds to plasma proteins, test compound solutions (5 μM) are prepared in buffer and species-specific plasma (final DMSO concentration 0.5%). The plasma-containing solution is added to one side of the membrane of an equilibrium dialysis system, and the plasma-free is added to the other side. Dialysis was allowed to reach equilibrium by incubation for two hours at 37° C. The concentration of compound on both sides of the membrane was measured using LC-MS/MS.

CYP3A4 = CYP3A4 (Homo sapiens (Human), UniProt P08684); test: CYP450 inhibition in human liver microsomes: CYP3A4;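 further: incubation at 37 °C started by adding 1 mM NADPH, with formation of the probe metabolite measured via LC-MS/MS or fluorescent detection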
CYP3A4, sequence (P08684 whole entry): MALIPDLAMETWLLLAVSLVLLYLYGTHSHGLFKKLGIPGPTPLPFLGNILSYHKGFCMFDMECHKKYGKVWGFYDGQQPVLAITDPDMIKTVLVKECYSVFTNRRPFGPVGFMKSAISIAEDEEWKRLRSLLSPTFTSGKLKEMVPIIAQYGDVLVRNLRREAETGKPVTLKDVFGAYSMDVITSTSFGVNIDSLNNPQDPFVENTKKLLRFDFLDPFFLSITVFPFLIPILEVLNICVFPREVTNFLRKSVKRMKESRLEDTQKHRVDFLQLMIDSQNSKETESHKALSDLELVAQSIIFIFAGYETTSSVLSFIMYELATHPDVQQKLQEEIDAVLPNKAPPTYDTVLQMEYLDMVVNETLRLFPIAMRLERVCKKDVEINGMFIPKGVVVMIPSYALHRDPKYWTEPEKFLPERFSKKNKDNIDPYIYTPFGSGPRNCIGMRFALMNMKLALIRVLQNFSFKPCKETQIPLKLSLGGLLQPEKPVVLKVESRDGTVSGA

CEM-SS cells = system: CEM-SS cells
Description: as §2

human hepatocytes = test: Metabolic stability in cryopreserved human hepatocytes; conditions: human hepatocytes, 3 uM, incubated up to one hour
Description: Metabolism of PI conjugates was investigated by monitoring the levels of unmetabolized parent compound following incubation with cryopreserved human or monkey hepatocytes. The use of whole hepatocytes rather than microsomes requires that the drugs cross the cell membrane to interact with intracellularly-localized metabolic enzymes, and thus provides the most relevant in vitro system for understanding overall metabolic stability of these compounds.
Test compounds (0.1 μM or 3 μM, as indicated) are incubated with cryopreserved human hepatocytes at a cell density of 0.5×10^6 viable cells/mL. […] Duplicate samples (50 μL) are removed from the incubation mixture at various timepoints up to four hours (for 0.1 μM test compound concentration), or one or two hours (for 3 μM test compound concentration), and the reaction is quenched by the addition of methanol containing internal standard (100 μL). The samples are centrifuged (2500 rpm at 4° C. for 20 min), and the supernatants at each time point pooled for cassette analysis by LC-MS/MS.

[7] = biological target: recombinant HIV-1 protease (Human immunodeficiency virus type 1 group M subtype B (isolate HXB2) (HIV-1), UniProt P04585); test: Enzyme inhibition of purified HIV-1 protease (SensoLyte 520 HIV-Protease Assay Kit); format: biochemical; conditions: read-out: IC50 ± SD
Description: Protease inhibitors (PI) are used to treat HIV infection by preventing viral assembly and maturation through the inhibition of HIV-1 protease activity. Biochemical assays were performed to evaluate the potential of PEG-PI conjugates to inhibit HIV-1 protease activity, relative to their respective PI parent molecules. Activity assays were performed at using the SensoLyte 520 HIV-Protease Assay Kit (Anaspec Inc., San Jose, Calif.) and recombinant HIV-1 protease. Protease activity was monitored by the formation of a fluorescent reporter product generated during HIV-1 protease-mediated digestion of a quenched, fluorimetric substrate containing the p17/p24 Pr^gag cleavage site.

HIV-1RF [8] = test: Pre-exposure assay: CEM-SS cells treated before HIV-1RF infection, cell viability; format: cell-based; conditions: for EC50: Human immunodeficiency virus 1, CEM-SS, read-out: EC50
Description: (§3) The effects of pre- and post-infection PI treatment on CEM-SS toxicity were assessed. […] Cell toxicity was monitored six days after infection using XTT reagent. In the post-exposure assay, test compounds were added to cells 0, 24, 48, or 72 h after HIV-1 infection, and cell viability was measured six days post-infection.

HIV-1RF [9] = test: Post-exposure assay: compounds added after HIV-1 infection of CEM-SS cells, cell viability; format: cell-based; conditions: Human immunodeficiency virus 1, CEM-SS, read-out: EC50
Description: as §3

HIV-1RF [10] = test: p24 levels after single high MOI HIV-1RF infection of CEM-SS cells, time of addition; format: cell-based
Description: The cytoprotective effect against HIV of the PEG-protease inhibitor conjugates was evaluated during a single round of high multiplicity of infection (“MOI”) HIV-1 infection in CEM-SS cells. CEM-SS cells were incubated for one hour with a single high MOI dose of HIV-1RF. Cells were washed to remove free virus, then test compounds were added to cells at 0, 2, 4, 6, 8, 16, or 24 hours after HIV-1 infection. To monitor viral replication, cell supernatants were analyzed at 30 hours post-infection for levels of the HIV capsid protein p24 (FIG. 1). […] Nevirapine inhibited viral replication at 1 μM when added to cells up to four hours post-infection, and at 10 μM when added up to eight hours post-infection.

HIV-1 virions = test: Infectivity of HIV-1 virions from treated cells on naive CEM-SS cells; format: cell-based
Description: In concert with p24 analysis, cell supernatants collected from cells exposed to test compounds at 8, 16, or 24 hours post-infection were used to infect naïve CEM-SS cells. Cell viability was measured six days post-infection as a measure of virus infectivity (Table 5).

## Triton X-100 [reference compound]
PBMCs [1]
  Thymidine Incorporation (PBMC) TC50: 0.002%
  Uridine Incorporation (PBMC) TC50: 0.0009%
  Leucine Incorporation (PBMC) TC50: 0.0006%
PBMCs [2]
  XTT (PBMC) TC50: 0.003%

## COCCOCCOCCOCCOCCOCCOCCOc1ccc(C[C@H](NC(=O)O[C@H]2CO[C@H]3OCC[C@H]32)C(O)CN(CC(C)C)S(=O)(=O)c2ccc(N)cc2)cc1 (stereo partly shown) [mPEG7-O-Darunavir]
HIV-1 HT/92/599
  EC50: 250 ± 27 nM
[3]
  Microsomal Protein Binding Fu ± SD: 0.84 ± 0.0131
PBMCs [4]
  PBMC TC50 ± SD: >200000 nM
Caco-2 cells; Caco-2 monolayers
  Efflux ratio (B→A/A→B): 33
Caco-2 cells; Caco-2 monolayers, apical to basolateral
  A→B, ×10^−6: 0.19 cm/s
HIV-1RF [5]
  EC50: 47 nM and 76 nM
[6]
  CLint ± SEM: 113 ± 8.87 μL/min/mg protein
  t1/2: 12.2 min
Human plasma proteins
  Plasma Protein Binding Fu ± SD: 0.314 ± 0.0116

## C[S+](C)[O-] [DMSO, reference compound]
PBMCs [1]
  Thymidine Incorporation (PBMC) TC50: >2.0%
  Uridine Incorporation (PBMC) TC50: 0.06%
  Leucine Incorporation (PBMC) TC50: 0.19%
PBMCs [2]
  XTT (PBMC) TC50: >2.0%

## COCCOCCOCCOCCOCCOC(=O)N[C@@H](C(=O)NC(Cc1ccccc1)[C@@H](O)CN(Cc1ccc(-c2ccccn2)cc1)NC(=O)[C@H](NC(=O)OCCOCCOCCOCCOCCOC)C(C)(C)C)C(C)(C)C (stereo partly shown) [di-mPEG5-Atazanavir]
[3]
  Microsomal Protein Binding Fu ± SD: highly unbound
CYP3A4; read-out: CYP3A4 IC50 Midazolam, probe substrate midazolam
  IC50: > 50000 nM
CYP3A4; read-out: CYP3A4 IC50 Testosterone, probe substrate testosterone
  IC50: > 50000 nM
CEM-SS cells
  CEM-SS TC50 ± SD: >200000 nM
Caco-2 cells; Caco-2 monolayers
  Efflux ratio (B→A/A→B): >10.8
Caco-2 cells; human, Caco-2
  A→B, ×10^−6: 0.06 cm/s
HIV-1RF [5]
  EC50: 1110 nM
Human plasma proteins
  Plasma Protein Binding Fu ± SD: 0.537 ± 0.0412
Human hepatocytes
  CLint ± SEM: 0.824 ± 0.950 μL/min/10^6 cells
[7]
  IC50: 17.3 nM

## CC(C)c1nc(CN(C)C(=O)N[C@H](C(=O)N[C@@H](Cc2ccccc2)C[C@H](O)[C@H](Cc2ccccc2)NC(=O)OCc2cncs2)C(C)C)cs1 [Ritonavir]
HIV-1RF [8]; exposure 2 h pre-infection
  EC50: 720 nM
HIV-1RF [8]; exposure 8 h pre-infection
  EC50: 750 nM
HIV-1RF [8]; exposure 24 h pre-infection
  EC50: 680 nM
HIV-1RF [8]; in words
  EC50 values after pre-treatment of cells: sub-micromolar
HIV-1RF [9]; drug addition 0 h post-infection
  EC50: 40 nM
HIV-1RF [9]; drug addition 24 h post-infection
  EC50: 30 nM
HIV-1RF [9]; drug addition 48 h post-infection
  EC50: 70 nM
HIV-1RF [9]; drug addition 72 h post-infection
  EC50: 260 nM
HIV-1RF [10]; 0.1 μM
  time of addition up to which antiviral activity (reduced p24) was seen: up to six
HIV-1RF [10]; 1 μM
  time of addition up to which antiviral activity (reduced p24) was seen: up to 24 hours post-infection
HIV-1 virions; 0.01 μM, added 8 h post-infection
  Percent Infectivity of HIV-1 Virions in comparison to virus-alone control: 42.9%
HIV-1 virions; 0.01 μM, added 16 h post-infection
  Percent Infectivity of HIV-1 Virions in comparison to virus-alone control: 331.2%
HIV-1 virions; 0.01 μM, added 24 h post-infection
  Percent Infectivity of HIV-1 Virions in comparison to virus-alone control: 100.0%
HIV-1 virions; 0.1 μM, added 8 h post-infection
  Percent Infectivity of HIV-1 Virions in comparison to virus-alone control: 1.0%
HIV-1 virions; 0.1 μM, added 16 h post-infection
  Percent Infectivity of HIV-1 Virions in comparison to virus-alone control: 3.7%
HIV-1 virions; 0.1 μM, added 24 h post-infection
  Percent Infectivity of HIV-1 Virions in comparison to virus-alone control: 26.6%
HIV-1 virions; 1 μM, added 8 h post-infection
  Percent Infectivity of HIV-1 Virions in comparison to virus-alone control: 0.1%
HIV-1 virions; 1 μM, added 16 h post-infection
  Percent Infectivity of HIV-1 Virions in comparison to virus-alone control: 0.1%
HIV-1 virions; 1 μM, added 24 h post-infection
  Percent Infectivity of HIV-1 Virions in comparison to virus-alone control: 0.1%
